Measured values reported in patent publication US20200038393A1, “APOMORPHINE PLUS BUSPIRONE COMBINATION FOR MEMORY REVIVAL” (priority 2018, published 2020).

Legend:
[1] = Conditioned place preference (CPP) test for addictive/reinforcing effects; assay type: in vivo, rats
Source text: Apparatus for Conditioned Place Preference
A three compartment conditioned place preference (CPP) apparatus with an unbiased design was used to monitor drug-induced reinforcement. The apparatus was made up of transparent plastic Perspex. The compartments were separated by sliding guillotine doors.
The end (preference) compartments (26×26×26 cm each) provided distinct contexts, with one compartment having black horizontal stripes on side walls, the other compartment had vertical black stripes. […] The experiment was conducted in three distinct phases: pre-conditioning, conditioning and post-conditioning.
An animal introduced in the CPP apparatus from the middle compartment and guillotine doors were raised to open. The animal was allowed to explore the entire apparatus for 10 min. Time spent in each compartment was recorded.
(§1) This phase started one day after pre-conditioning phase, animals were randomly assigned to six groups, each containing six animals: (i) buspirone (0 mg/kg)-saline, (ii) buspirone (0 mg/kg)-[…], (iii) buspirone (1 mg/kg)-saline, (iv) buspirone (1 mg/kg)-apomorphine, (v) buspirone (2 mg/kg)-saline and (vi) buspirone (2 mg/kg)-apomorphine injected animals. Over next 12 days (day 1 to day 12) animals went through conditioning (one session per day) in which they were confined to either the horizontal or vertical stripe compartment by raising the respective guillotine door. On day 1, 3, 5, 7, 9 and 11 animals of all groups were injected with saline (1 ml/kg) and placed immediately in the assigned ‘Non-Drug paired’ compartment for 30 min. After which the animals were kept back in their home cages. On every other day, i.e. day 2, 4, 6, 8, 10, and 12 control and test animals were injected with saline, buspirone and/or apomorphine as assigned above. Immediately after injections, animals were placed in the ‘Drug paired’ compartment for 30 min. The animals picked from the drug paired compartment were placed back in their home cages.
The test was carried out on day 13, 24 hr post last conditioning session, in a drug free state. Each animal was tested only once. As in the pre-conditioning phase, the guillotine doors were removed and rat was given access to the entire apparatus for 10 min. Time spent in ‘Drug paired’ compartment was monitored.

[2] = Morris water maze test (learning acquisition, memory consolidation, retention); assay type: in vivo, rats
Method: The Morris water maze test was conducted after repetitive apomorphine injections and post-conditioning. Water temperature was at room temperature, 21±1° C. The platform (10 cm×10 cm) was made of clear acrylic and was hidden 2 cm below the surface of water in a fixed location. Water was made opaque by adding milk to it.
During training phase, each rat was placed into the water facing the wall of the tank and allowed 120 sec to locate and climb onto the submerged platform. The rat was allowed to stay on the platform for 10 sec. […] After the training animals were tested three times.
Each rat was tested immediately after training. Learning acquisition was determined by recording the initial latency (IL; the time taken by each rat to relocate the hidden platform).
Rats were tested for memory consolidation 60 min post training. It was determined by recording the retention latency (RL; the time taken by each rat to locate the hidden platform 1 h after training). The cut off time for each session was 2 min.
Rats were tested for memory retention 24 hr post training session. Memory retention was determined by recording the retention latency (RL; the time taken by each rat to locate the hidden platform 24 hr post training). The cut off time for each session was 2 min.

[3] = Motor behavior (cage crossings) and % psychosis like effects during conditioning phase; assay type: in vivo; conditions: rats
Method: as §1
Motor behavior was also monitored during conditioning phase. Animals confined to a compartment were moving across the compartment. Activity scores were counted as number of cage crossings for 10 min starting 5 min post injection.

[4] = Exploratory activity in novel environment of an open field; assay type: in vivo; conditions: rats
Method: Open field consisted of a square area (76×76 cm) with walls 42 cm high. Floor of the apparatus was divided by lines into 25 squares of equal size. Experiment was conducted in a quiet room under white light. Animals were tested 24 hr post 1st and 6th apomorphine injection. Numbers of squares crossed with all four paws and latency to move from the central square were scored for 5 min.

[5] = buspirone 1 mg/kg co-administered with apomorphine 1 mg/kg, rats
[6] = buspirone co-injected animals (summary statement)
[7] = buspirone 1 mg/kg with apomorphine, rats
[8] = buspirone 1 mg/kg co-treated with apomorphine 1 mg/kg

SMILES | Effect on apomorphine-induced increases in post conditioning values of time spent in drug paired compartment [1, 5] | Reinforcement effects of apomorphine [1, 5] | Addiction to apomorphine [1, 6] | Effect on apomorphine-increased learning acquisition [2, 7] | Effect on apomorphine-increased memory consolidation [2, 7] | Effect on apomorphine-increased memory retention [2, 7] | Memory enhancing effects of apomorphine [2, 6] | Effect on % psychosis like effects produced by apomorphine [3, 8] | Effect on apomorphine-increased motor activities post repeated administration [3, 8] | Effect on apomorphine-increased exploratory activity ([4]; buspirone 1 mg/kg, after 6th apomorphine injection) | Post-conditioning values of time spent in the drug paired compartment ([1]; apomorphine 1 mg/kg, repeated, vs pre-conditioning/saline, rats) | % reinforcement ([1]; apomorphine 1 mg/kg, rats) | Memory consolidation (time taken to reach platform) ([2]; apomorphine vs saline treated animals, 60 min post training, rats) | Memory retention (time taken to reach platform) ([2]; apomorphine vs saline treated animals, 24 hr post training, rats) | Learning acquisition (time taken to reach platform) ([2]; apomorphine vs saline treated animals, tested immediately after training, rats) | Motor activities post repeated administration ([3]; apomorphine 1 mg/kg, repeated administration) | Motor activities post single administration ([3]; apomorphine 1 mg/kg, single administration) | % psychosis like effects ([3]; apomorphine 1 mg/kg) | Exploratory activity in open field ([4]; apomorphine alone)
O=C1CC2(CCCC2)CC(=O)N1CCCCN1CCN(c2ncccn2)CC1 [buspirone] | significantly attenuates | did not occur | reduced | further potentiated | further potentiated | further potentiated | potentiated | attenuated | attenuated | attenuated |  |  |  |  |  |  |  |  | 
CN1CCc2cccc3c2[C@H]1Cc1ccc(O)c(O)c1-3 [apomorphine] |  |  |  |  |  |  |  |  |  |  | much higher | increased | increase | increase | increase | increased | increase | produced | increased
